Data reported in ChEMBL document CHEMBL5543137, “Design and Synthesis of Novel Ultralong-Acting Peptides as EDP-EBP Interaction Inhibitors for Pulmonary Fibrosis Treatment” (J Med Chem, 2024).
The source made the active and inactive calls. No cut-off for these calls is given here.

Experiments:
Mus musculus = assay: Antifibrotic activity against BLM-induced C57BL/6 mouse pulmonary fibrosis model assessed as improvement in lung condition at 30 mg/kg, po administered for 2 weeks starting from 7 days post BLM induction and measured after 21 days post BLM induction; assay type: functional, organism-based
[1] = Binding affinity to EBP (unknown origin) by ITC method; parameters: species or system Homo sapiens
[2] = Tmax in Sprague-Dawley rat serum at 600 ug/kg, sc administered as single dose measured upto 10 days by LC-MS/MS method; assay type: ADME, organism-based; conditions: 0.6 mg/kg, dose 600 µg/kg, time < 10 day
[3] = Half-life in Sprague-Dawley rat serum at 600 ug/kg, sc administered as single dose measured upto 10 days by LC-MS/MS method; assay type: ADME, organism-based; conditions: 0.6 mg/kg, dose 600 µg/kg, time < 10 day

Kd [1] [µM] | Tmax [2] [min] | half-life [3] [min] | Compound | Activity (Mus musculus)
 |  |  | COC(=O)c1ccc2c(c1)NC(=O)/C2=C(\Nc1ccc(N(C)C(=O)CN2CCN(C)CC2)cc1)c1ccccc1 | Active
539 | 4.98 | 5.88 | H-VVGSPSAQDEASPL-NH2 | 
